Laboratory results taken from US9371317B2, “Sweet flavor modifier” (SENOMYX, INC., priority 2013, dated 2016).

Key:
[1] = test system: human panelists; experiment: Sweetness threshold: paired comparison taste test, LSB+compound at pH 7.1 vs. 1% sucrose; type: in vivo; settings: 25 ppm compound in LSB
Procedure: (§1) Test samples containing experimental compounds are presented in pairs to the panelist and they are asked to determine which of the sample is sweeter. […] A group of 10 to 16 or more panelists participated in each test. Subjects refrained from eating or drinking (except water) for at least 1 hour prior to the test. Subjects rinsed with water several times to clean the mouth.
(§2) Taste tests were performed with sucrose or HFCS as the sweetener in the presence or absence of compound. A 0.2% stock solution of compound in water with sodium bicarbonate was prepared and then this stock solution was diluted in the final sample to achieve the targeted final concentration of compound. Taste samples were also prepared in a low sodium phosphate buffer (pH 7.1; “LSB”) lacking sucrose or HFCS to evaluate the taste of the compound alone. Low sodium phosphate buffer consists of 0.3 mM KCl, 0.5 mM Na2HPO4, and 0.175 mM KH2PO4. Sample volumes are usually 20 ml.
(§3) In one paired comparison test, the panelist is presented with two different samples and asked to identify the sample which is sweeter. The samples within a paired comparison test are presented in a randomized, counterbalanced order. Panelists have up to a 1 minute delay between taste tests to clear the mouth of any tastes. […]

[2] = test system: human panelists; experiment: Enhancement of sucrose at pH 7.1: paired comparison taste test, 6% sucrose+compound vs. 10%, 11% or 12% sucrose; type: in vivo; settings: 10 ppm compound in 6% sucrose
Procedure: as §1, §2, §3

[3] = test system: human panelists; experiment: Enhancement of sucrose at pH 2.8: paired comparison taste test, 6% sucrose+compound vs. 10%, 11% or 12% sucrose; type: in vivo
Procedure: as §1, §2, §3

[4] = test system: human panelists; experiment: Enhancement of HFCS at pH 2.8: paired comparison taste test, 6% HFCS+compound vs. 8% or 9% HFCS; type: in vivo; settings: 20 ppm compound in 6% HFCS
Procedure: as §1, §2, §3

| melting point [°C] | SMILES | Sweetness of compound alone vs. 1% sucrose [1] | Sucrose equivalence of 6% sucrose + compound [2] | Sucrose equivalence of 6% sucrose + compound ([3]; 5 ppm compound in 6% sucrose) | Sucrose equivalence of 6% sucrose + compound ([3]; 10 ppm compound in 6% sucrose) | HFCS equivalence of 6% HFCS + compound [4] |
| --- | --- | --- | --- | --- | --- | --- |
| 235 to 238 | CC(C)(COc1cccc2c1C(N)=NS(=O)(=O)N2)NC(=O)c1ccncc1 [Compound A1, N-(1-(4-amino-2,2-dioxide-1H-benzo[c][1,2,6]thiadiazin-5-yloxy)-2-methylpropan-2-yl)isonicotinamide] | 25 ppm equivalent to 1% sucrose | 10 ppm in 6% sucrose is equivalent to 10% sucrose | 5 ppm in 6% sucrose is equivalent to 11% sucrose | 10 ppm in 6% sucrose is equivalent to 12% sucrose | 20 ppm in 6% HFCS is equivalent to 9% HFCS |
| 238 to 240 | Cc1cc(C(=O)NC(C)(C)COc2cccc3c2C(N)=NS(=O)(=O)N3)ccn1 [Example 2, N-(1-((4-amino-2,2-dioxide-1H-benzo[c][1,2,6]thiadiazin-5-yl)oxy)-2-methylpropan-2-yl)-2-methylisonicotinamide] | – | – | – | – | – |
| > 250 | NC1=NS(=O)(=O)Nc2cccc(OCC3(NC(=O)c4ccncc4)CCCC3)c21 [Example 9, N-(1-(((4-amino-2,2-dioxido-1H-benzo[c][1,2,6]thiadiazin-5-yl)oxy)methyl)cyclopentyl)isonicotinamide] | – | – | – | – | – |
